For one compound, mass density results are on record in the NIST ThermoML archive (doi:10.1016/j.jct.2014.03.009).

The structures appear in SMILES notation. ± gives the expanded uncertainty stated by the source.

The conditions of this data set: 298 K; 101.33 kPa; Crystal; X-ray diffraction.

Take `O.O.O.O.O=C([O-])[C@H](O)[C@@H](O)[C@H](O)[C@H](O)CO.O=C([O-])[C@H](O)[C@@H](O)[C@H](O)[C@H](O)CO.[Mn+2]` [manganese(II) D-gluconate tetrahydrate]: the mass density was 1713 ± 8 kg/m3.

One may read the mass density as mass per unit of volume.
